Assay results: patent US8722725B2, “Caffeoylquinic acid derivatives containing nitrogen, and preparation method, pharmaceutical composition and usage thereof” (Zhejiang Medicine Co., Ltd. Xinchang Pharmaceutical Factory, priority 2007, dated 2014)
Converted amounts (≈) assume the structure as drawn. Like-named read-outs stand apart in the source and are kept apart here.

Columns and labels:
Type in all cases: cell-based
[1] = tested on: HIV-1 IIIB virus strain; assay: Inhibitory effect on HIV-1 IIIB in MT-4 cells (P24 antigen ELISA of cell culture supernatant); settings: Human immunodeficiency virus 1, IIIB, MT4, 96 h, read-out: IC50 (half inhibition concentration, HIV-1 IIIB)
Procedure: (§1) Anti-HIV-1 IIIB/H9 in vitro of the above partial compounds is tested. Half inhibition concentration (IC50) of samples and half toxicity concentration (TC50) of samples are respectively measured after culturing MT-4 cells, wherein the cell toxicity is measured by the method of CPE, and the inhibitory effects on HIV-1 IIIB of compounds are measured by method of measuring P24 antigen of cell culture supernatant.
Virus strains: HIV-1 IIIB virus strain
Sample treatment: before using, the sample is prepared for a suitable concentration by being dissolved in DMSO and then is further prepared for a cell culture medium.
Positive control drug: Zidovudine (AZT)
HIV-1 P24 antigen detection kit: Use products of BioMerieux Corporation in Holland.
HIV-1 P24 antigen is measured by the method of ELISA. After counting the MT-4 cells, the cells are infected in the virus dose of 100TCID50 and absorbed for 1.5 h in the incubator of 37° C., 5% CO2 and a saturated humidity. The cells are inoculated in a 96-well plate at the density of 2×10^5 cells/ml. After adding a diluted drug 100 ul/well, the culture of the plate is cultured at the incubator of 37° C., 5% CO2 and a saturated humidity for 4 days (96 h). Cell supernatant is taken out and diluted in the ratio of 1:3000. HIV-1 P24 titer is measured according to the test steps provided by HIV-1 P24 antigen kit. Compared adding drug groups with viral control groups, half inhibition concentration (IC50) of samples and half toxicity concentration (TC50) of samples are respectively calculated

[2] = tested on: T-lymphocyte MT-4; assay: Cell toxicity in MT-4 cells by method of CPE (96 h)
Procedure: as §1
Test method: The toxicity of drug in cell (TC50 and TC0) is measured by method of CPE. 100 μl cell is inoculated in 96-well plate at a density of 2×10^5 cells/ml. In the meantime, the medical solution 100 μl of 8 kinds of concentration of samples or positive drug zidovudine which are respectively diluted to 3 times are respectively added thereto, each of concentration is placed in 3 wells which are set to a cell control group. The above plates is cultured at the incubator of 37° C., 5% CO2 and a saturated humidity. CPE Cells are observed at the fourth day (96 h) after adding drug, the cytopathic situation is recorded and TC50 and TC0 are calculated.

[3] = tested on: Hep-2 cell (human laryngocarcinoma cell); assay: Toxicity of samples with respect to Hep-2 cell (CPE, Reed-Muench); settings: 72 h
Procedure: Anti-RSV in vitro of the above partial compounds is tested. With Hep-2 cell (human laryngocarcinoma cell) as viral host, Hep-2 cytopathic extent caused by inhibiting RSV is measured and observed for 72 h. Half inhibition concentration (IC50) of samples with respect to respiratory syncytial virus (RSV), its maximum of non toxicity concentration (TC0) and half toxicity concentration (TC50) of samples with respect to Hep-2 cell are respectively calculated by methods of Reed-Muench. Sample treatment: before using, sample is prepared for a suitable concentration by being dissolved in DMSO, and is diluted to 3 times with a culture medium to form eight dilutions. Test method: After Hep-2 cell is cultured in 96-well plate for 24 h, it is infected respiratory syncytial virus (RSV) (200TCID50 infective dose) and absorbed for 4 h to get a viral liquid. Then the viral liquid is discarded. The sample is added thereto according to the above eight dilutions, in the meantime cell control wells of positive drugs, normal cell control wells and viral control wells are set. The cytopathic extent (CPE) is observed for 72 h. Half inhibition concentration (IC50) of samples with respect to respiratory syncytial virus (RSV), its maximum of no toxicity concentration (TC0) and half toxicity concentration (TC50) of samples with respect to Hep-2 cells are respectively calculated by method of Reed-Muench.

[4] = tested on: human hepatoma carcinoma cells (Hep G2) 2.2.15 cell line; assay: Cell toxicity in 2.2.15 cells (cytopathic cells observed for 8 days, Reed-Muench)
Procedure: (§2) Anti-hepatitis (HBV) DNA virus in vitro of the above partial compounds is tested. human hepatoma carcinoma cells (Hep G2) in the 2.2.15 cell line are transfected by DNA cloning of hepatitis B virus (HBV), the inhibitory effect on cell toxicity and HBV DNA secretion are studied. Half inhibition concentration (IC50) and half toxicity concentration (TC50) of samples are measured, the inhibition ratio to HBV DNA in the 2.2.15 cell culture are obtained respectively.
Virus strains: human hepatoma carcinoma cells (Hep G2) in 2.2.15 cell line are transfected by DNA cloning of hepatitis B virus (HBV).
Sample treatment: the sample is prepared for a suitable concentration by being dissolved in DMSO and preserved at 4° C. before using. When using, the required concentration is prepared by using a 2.2.15 cell culture medium.
Test method: The sample is prepared for a 20 mg/ml mother liquor, and is further prepared for a required concentration by using a 2.2.15 cell culture medium. Then the above solution is diluted to 5 times from 200 μg/ml with the culture medium to form eight kinds of concentrations. The above solution is added to a 96-well cell plate, each of concentration is placed in 3 wells, and the medical solution with the same concentration is changed every 4 days. Cell control group without drug is set to observe cytopathic cell as a target, the cytopathic cell is observed under a microscope for 8 days, wherein full destruction is about 4; 75% of cytopathic cells are about 3; 50% of cytopathic cells are about 2; 25% of cytopathic cells are about 1; no cytopathic cells is about 0. Mean cytopathic extent and inhibition ratio of medical solutions for each concentration are calculated. Half toxicity concentration (TC50) and its maximum of non toxicity concentration (TC0) are respectively calculated by the method of Reed-Muench. According to the method of molecular cloning experimental technology, firstly the HBV DNA is extracted from 2.2.15 cells of medical solution of each concentration group and cell control groups, and then a dot blot hybridization and autoradiography of each sample are measured. After measuring IOD value or OD value of every hybridization dot, the inhibition ratio is calculated.

[5] = tested on: respiratory syncytial virus (RSV), Long strain; assay: Inhibitory effect on anti-RSV in vitro (CPE in Hep-2 cells, 72 h, Reed-Muench); settings: human respiratory syncytial virus, read-out: IC50 (half inhibition concentration, RSV)
Procedure: Anti-RSV in vitro of the above partial compounds is tested. With Hep-2 cell (human laryngocarcinoma cell) as viral host, Hep-2 cytopathic extent caused by inhibiting RSV is measured and observed for 72 h. Half inhibition concentration (IC50) of samples with respect to respiratory syncytial virus (RSV), its maximum of non toxicity concentration (TC0) and half toxicity concentration (TC50) of samples with respect to Hep-2 cell are respectively calculated by methods of Reed-Muench.
Virus strains: RSV, Long strain
Sample treatment: before using, sample is prepared for a suitable concentration by being dissolved in DMSO, and is diluted to 3 times with a culture medium to form eight dilutions.
Positive control drug: ribavirin (RBV)
Test method: After Hep-2 cell is cultured in 96-well plate for 24 h, it is infected respiratory syncytial virus (RSV) (200TCID50 infective dose) and absorbed for 4 h to get a viral liquid. Then the viral liquid is discarded. The sample is added thereto according to the above eight dilutions, in the meantime cell control wells of positive drugs, normal cell control wells and viral control wells are set. The cytopathic extent (CPE) is observed for 72 h. Half inhibition concentration (IC50) of samples with respect to respiratory syncytial virus (RSV), its maximum of no toxicity concentration (TC0) and half toxicity concentration (TC50) of samples with respect to Hep-2 cells are respectively calculated by method of Reed-Muench.

[6] = tested on: hepatitis B virus (HBV) DNA; assay: Inhibition of HBV DNA in 2.2.15 cell culture (dot blot hybridization, autoradiography); settings: concentration not given
Procedure: as §2
Virus strains: human hepatoma carcinoma cells (Hep G2) in 2.2.15 cell line are transfected by DNA cloning of hepatitis B virus (HBV). […]
Test method: The sample is prepared for a 20 mg/ml mother liquor, and is further prepared for a required concentration by using a 2.2.15 cell culture medium. […] Mean cytopathic extent and inhibition ratio of medical solutions for each concentration are calculated. Half toxicity concentration (TC50) and its maximum of non toxicity concentration (TC0) are respectively calculated by the method of Reed-Muench. According to the method of molecular cloning experimental technology, firstly the HBV DNA is extracted from 2.2.15 cells of medical solution of each concentration group and cell control groups, and then a dot blot hybridization and autoradiography of each sample are measured. After measuring IOD value or OD value of every hybridization dot, the inhibition ratio is calculated.

[7] = RSV Long strain in Hep-2 cell, CPE, 72 h

| SMILES | IC50 [1] [µg/mL] | TC50 (half toxicity concentration) ([2]; MT-4 cells, CPE) [µg/mL] | TC0 (maximum of non toxicity concentration) [3] [µg/mL] | TC50 (half toxicity concentration) [3] [µg/mL] | Cell toxicity TC0 [4] [µg/mL] | Cell toxicity TC50 [4] [µg/mL] | IC50 [5, 7] [µg/mL] | HBV DNA Inhibition ratio (%) [6] | IC50 ([5]; HEp-2, 72 h) [µg/mL] | TC50 (half toxicity concentration) ([2]; human) [µg/mL] |
| --- | --- | --- | --- | --- | --- | --- | --- | --- | --- | --- |
| Cc1cn([C@H]2C[C@H](N=[N+]=[N-])[C@@H](CO)O2)c(=O)[nH]c1=O [AZT, zidovudine, reference compound] | 0.0042 (≈ 0.0157 µM) | 20.00 (≈ 74.8 µM) | – | – | – | – | – | – | – | – |
| O=C(/C=C/c1ccc(O)c(O)c1)O[C@@H]1C[C@](OC(=O)/C=C/c2ccc(O)c(O)c2)(C(=O)N2CCCC2)C[C@@H](O)[C@H]1O [2-3] | – | – | 4.12 | 12.35 (≈ 21.7 µM) | 0.32 | 3.58 | > 12.3 | – | – | – |
| CNC(=O)[C@]1(O)C[C@@H](O)[C@@H](O)[C@H](OC(=O)/C=C/c2ccc(O)c(O)c2)C1 [3-5] | – | – | 12.35 | 37.04 (≈ 101 µM) | 8 | 89.44 | 7.13 (≈ 19.4 µM) | – | – | – |
| CNC(=O)[C@]1(OC(=O)/C=C/c2ccc(O)c(O)c2)C[C@@H](O)[C@@H](O)[C@H](OC(=O)/C=C/c2ccc(O)c(O)c2)C1 [3-3] | – | – | 37.04 | 111.11 (≈ 210 µM) | 0.32 | 3.58 | > 111 | – | – | – |
| Nc1ccn([C@@H]2CS[C@H](CO)O2)c(=O)n1 [3TC, lamivudine, reference compound] | – | – | – | – | – | – | – | 40.8~49.39% | – | – |
| O=C(/C=C/c1ccc(O)c(O)c1)O[C@@H]1C[C@](O)(C(=O)NC2CC2)C[C@@H](OC(=O)/C=C/c2ccc(O)c(O)c2)[C@H]1O [1-1] | – | – | 37.04 | 111.11 (≈ 200 µM) | 1.6 | 27.59 | > 111 | – | – | – |
| NC(=O)c1ncn([C@@H]2O[C@H](CO)[C@@H](O)[C@H]2O)n1 [RBV, Ribavirin, reference compound] | – | – | – | – | – | – | – | – | 1.37 (≈ 5.61 µM) | – |
| CNC(=O)[C@]1(O)C[C@@H](OC(=O)/C=C/c2ccc(O)c(O)c2)[C@@H](O)[C@H](OC(=O)/C=C/c2ccc(O)c(O)c2)C1 [3-1] | 1.83 (≈ 3.46 µM) | – | 37.04 | 64.15 (≈ 121 µM) | 1.6 | 27.59 | 16.2 (≈ 30.7 µM) | – | – | 32.08 (≈ 60.6 µM) |
| CNC(=O)[C@]1(O)C[C@@H](OC(=O)/C=C/c2ccc(O)c(O)c2)[C@@H](OC(=O)/C=C/c2ccc(O)c(O)c2)[C@H](OC(=O)/C=C/c2ccc(O)c(O)c2)C1 [3-7] | 1.02 (≈ 1.47 µM) | – | 37.04 | 64.15 (≈ 92.8 µM) | >200 | >200 | > 64.2 | 41.71% | – | 32.08 (≈ 46.4 µM) |
